# Laboratory results taken from patent US20060252774A1, “Regulation of type 5 adenylyl cyclase for treatment of neurodegenerative and cardiac diseases” (priority 2002, published 2006).
# “And” between values parts separate entries of the source, which are not always exact repeats. Identical values can stand only once. “Also recorded” adds a separate entry of the source.
# Legend:
# AC5 [1] = target: T1, AC5 (Canis lupus familiaris, UniProt P30803); test: AC catalytic activity inhibition, AC5 isoform; format: biochemical; parameters: IC50 for AC5; other: 5 mM MgCl2 with Gsalpha/GTPgammaS/forskolin (50 micro M); other: in the presence of Gsalpha/GTPgammaS/forskolin; other: 10 micro M; details: for IC50: 5 mM MgCl2 with Gsalpha/GTPgammaS/forskolin (50 micro M)
# T1 sequence (P30803 whole entry, canonical isoform): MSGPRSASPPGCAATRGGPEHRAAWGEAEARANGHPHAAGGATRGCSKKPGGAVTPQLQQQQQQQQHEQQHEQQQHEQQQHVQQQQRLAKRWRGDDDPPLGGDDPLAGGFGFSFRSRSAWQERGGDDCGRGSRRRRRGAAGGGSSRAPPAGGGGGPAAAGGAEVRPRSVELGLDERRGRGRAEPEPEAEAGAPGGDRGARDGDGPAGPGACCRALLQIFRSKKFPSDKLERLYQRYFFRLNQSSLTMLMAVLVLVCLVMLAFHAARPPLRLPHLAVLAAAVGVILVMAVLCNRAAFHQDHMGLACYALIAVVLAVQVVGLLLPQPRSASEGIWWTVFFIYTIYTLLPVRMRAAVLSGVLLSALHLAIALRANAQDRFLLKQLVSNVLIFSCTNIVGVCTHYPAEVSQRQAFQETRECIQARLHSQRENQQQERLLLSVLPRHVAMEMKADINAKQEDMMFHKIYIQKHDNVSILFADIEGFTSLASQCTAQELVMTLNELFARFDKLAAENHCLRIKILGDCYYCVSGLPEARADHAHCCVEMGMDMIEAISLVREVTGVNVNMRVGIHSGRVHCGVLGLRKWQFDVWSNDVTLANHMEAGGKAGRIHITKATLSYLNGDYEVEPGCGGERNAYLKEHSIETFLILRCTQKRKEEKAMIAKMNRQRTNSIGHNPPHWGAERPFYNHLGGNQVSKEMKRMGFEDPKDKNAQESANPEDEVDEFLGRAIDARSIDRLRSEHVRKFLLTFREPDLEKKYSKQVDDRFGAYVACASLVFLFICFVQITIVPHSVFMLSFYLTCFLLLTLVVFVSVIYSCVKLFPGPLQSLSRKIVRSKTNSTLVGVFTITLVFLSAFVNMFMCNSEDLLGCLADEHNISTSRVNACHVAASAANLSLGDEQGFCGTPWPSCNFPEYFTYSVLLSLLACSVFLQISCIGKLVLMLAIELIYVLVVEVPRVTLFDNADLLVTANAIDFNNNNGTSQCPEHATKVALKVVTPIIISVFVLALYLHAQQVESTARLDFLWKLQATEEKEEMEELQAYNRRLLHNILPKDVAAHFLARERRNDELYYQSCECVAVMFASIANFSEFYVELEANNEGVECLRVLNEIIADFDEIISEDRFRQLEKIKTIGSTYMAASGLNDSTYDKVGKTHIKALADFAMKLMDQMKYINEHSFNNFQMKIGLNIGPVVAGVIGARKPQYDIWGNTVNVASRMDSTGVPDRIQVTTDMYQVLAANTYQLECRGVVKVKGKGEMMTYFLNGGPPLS
# Excerpt: FIG. 11. […] The relative inhibitory activity versus control (% control activity) for various AC isoforms are shown. Data are means±S.D. of quadruplicate determinations.
# Classic inhibitors of AC include adenosine analogs or P-site inhibitors, and MDL12330A, a non-nucleic acid inhibitor. However, not much was known about the isoform selectivity of these inhibitors. […] It was previously noted that AC2 was less sensitive to THFA than the other isoforms, giving a selectivity ratio of 1.8 when compared between AC6 and AC2.
# Inventors will first determine the selectivity among the AC isoforms (FIG. 12). […] The IC50 values were calculated to be 0.32 micro M for AC5, 11.1 micro M for AC3, 65.3 micro M for AC2. The selectivity ratio of HI30435 was 207 between AC5 and AC2. […] The selectivity ratio was 18 between AC5 and AC2.
# AC5 [2] = target: T1, AC5; test: Adenyl cyclase stimulation by forskolin derivatives, High five cell membranes overexpressing type V; format: biochemical; parameters: made in house; host or cells: High Five insect cells (membranes); details: forskolin derivatives
# Experimental: FIG. 15: Effect of forskolin, 6[3-(dimethylamino)propionyl]-14,15-dihydroforskolin, and NKH477 on adenyl cyclase [isforms.] isoforms: Forskolin derivatives dose response effect (A-C). High five cell membranes overexpressing type II (A), type III (B), and type V (C) adenyl cyclases. Adenyl cyclase activity was measured in the presence of 5 mM of MgCl2 with various concentrations of forskolin (closed circles), 6[3-(dimethylamino)propionyl]-14,15-dihydroforskolin (D, open triangles) or NKH477 (open circles). Means±SEM from 4 independent experiments are shown. *, p<0.01 differences from the value with forskolin.
# [3] = test system: conscious WT and AC5KO mice; test: Physiological studies in conscious mice: HR (ECG) and arterial pressure; format: in vivo, mouse; details: for increase in HR: 1 μg/g i.v.; for change of HR: 0.75 mg/kg i.v.
# Excerpt: FIG. 19: Muscarinic regulation of cardiac function in vivo. A, Effects of atropine. […] B, Effect of ACh. […] C, Baroreflex regulation of HR.
# In AC5KO and WT mice, four ECG wires (New England Electric Wire Corporation, Lisbon, N.H., USA) were placed subcutaneously, a silicone elastomer tubing (Cardiovascular Instrument Corp., Wakefield, Mass., USA) was inserted into the right external jugular vein and a 1.4 F micromanometer catheter (Millar Instruments, Inc., Houston, Tex., USA) was inserted into the lower abdominal aorta via the femoral artery as described previously with some modifications. The ECG wires, the silicone elastomer tubing and the micromanometer catheter were tunneled subcutaneously to the back, externalized, and secured in a plastic cap. On the day of the study, each mouse was placed in the mouse holder, the jugular venous catheter was accessed and connected to a microliter syringe (Hamilton Co., Reno, Nev., USA), the 1.4 F micromanometer catheter was connected to a recorder (Dash 4u; Astro-Med, Inc., West Warwick, R.I., USA) and the ECG wires were connected to an ECG amplifier (Gould Inc., Cleveland, Ohio, USA). All experiments were recorded with animals in the conscious state. After at least 6 hours recovery from the implantation of the catheter, when a stable HR was achieved, the baseline ECG and arterial pressure (AP) were recorded for 5 min. Ach (0.05 μg/g) was then administered intravenously (i.v.), and the ECG and AP recording were repeated. A recovery period of 15 min was allowed for the HR and AP to return to baseline before administering the next drug. Baseline HR slowing was examined in response to phenylephrine (0.2 μg/g i.v.).
# Electrocardiogram (ECG) wires, a jugular vein catheter for drug infusion, and a femoral artery catheter for arterial pressure monitoring were implanted under anesthesia as described previously. […] Intravenous (i.v.) infusion of ISO (0.04 μg/kg/min i.v. for 5 min) was performed using an infusion pump. To examine the responses to a muscarinic agonist, acetylcholine (ACh) (25 mg/kg i.p.) was co-administered i.p. during the i.v. infusion of ISO (0.04 μg/kg/min). In addition, in conscious mice ACh (0.01 and 0.05 mg/kg), atropine (0.25, 1 and 2 mg/kg), or verapamil (0.75 mg/kg) were administered i.v., and the ECG was recorded. A recovery period of 15 min was allowed for the HR to return to baseline before administering the next drug. To examine HR responses to baroreflex hypertension, phenylephrine (0.2 mg/kg i.v.) was infused, and the ECG and arterial pressure were measured
# AC3 = target: T2, AC3 (Rattus norvegicus, UniProt P21932); test: AC catalytic activity inhibition, AC3 isoform; format: biochemical; details: in the presence of Gsalpha/GTPgammaS/forskolin
# T2 sequence (P21932 1-1144): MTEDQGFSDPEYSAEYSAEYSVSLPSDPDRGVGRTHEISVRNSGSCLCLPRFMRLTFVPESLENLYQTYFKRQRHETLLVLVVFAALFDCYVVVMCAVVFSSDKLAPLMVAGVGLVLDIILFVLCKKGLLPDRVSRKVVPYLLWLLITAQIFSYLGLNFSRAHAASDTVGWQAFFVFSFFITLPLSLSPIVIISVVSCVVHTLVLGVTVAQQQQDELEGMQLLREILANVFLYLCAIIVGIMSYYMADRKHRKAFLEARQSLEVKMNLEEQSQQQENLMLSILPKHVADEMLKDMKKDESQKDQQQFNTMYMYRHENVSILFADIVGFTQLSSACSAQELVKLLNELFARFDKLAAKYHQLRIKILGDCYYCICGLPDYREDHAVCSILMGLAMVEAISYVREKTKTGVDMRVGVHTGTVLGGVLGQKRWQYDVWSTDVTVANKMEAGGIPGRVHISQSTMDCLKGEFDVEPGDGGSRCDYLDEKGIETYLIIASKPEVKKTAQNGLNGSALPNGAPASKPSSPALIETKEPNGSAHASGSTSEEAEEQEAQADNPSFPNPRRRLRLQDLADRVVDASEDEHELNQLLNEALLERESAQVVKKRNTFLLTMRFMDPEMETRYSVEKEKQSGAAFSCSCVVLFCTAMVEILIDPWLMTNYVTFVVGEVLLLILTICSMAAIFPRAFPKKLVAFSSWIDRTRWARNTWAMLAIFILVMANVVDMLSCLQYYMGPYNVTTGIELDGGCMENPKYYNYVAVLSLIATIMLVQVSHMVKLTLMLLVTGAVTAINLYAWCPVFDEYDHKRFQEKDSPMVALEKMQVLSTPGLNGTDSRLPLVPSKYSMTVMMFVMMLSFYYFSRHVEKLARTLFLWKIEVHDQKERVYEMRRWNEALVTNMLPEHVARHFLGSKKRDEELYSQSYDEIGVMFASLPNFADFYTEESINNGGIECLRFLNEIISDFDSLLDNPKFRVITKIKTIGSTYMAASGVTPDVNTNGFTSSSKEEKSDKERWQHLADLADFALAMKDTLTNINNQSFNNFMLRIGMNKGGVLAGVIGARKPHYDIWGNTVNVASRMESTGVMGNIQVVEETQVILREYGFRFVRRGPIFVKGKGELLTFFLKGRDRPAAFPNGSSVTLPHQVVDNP
# Excerpt: (§1) Classic inhibitors of AC include adenosine analogs or P-site inhibitors, and MDL12330A, a non-nucleic acid inhibitor.
# (§2) Inventors will first determine the selectivity among the AC isoforms (FIG. 12).
# AC2 = AC2 (Rattus norvegicus, UniProt P26769); test: AC catalytic activity inhibition, AC2 isoform; format: biochemical; details: in the presence of Gsalpha/GTPgammaS/forskolin
# Excerpt: as §1, §2
# cardiac AC = test: AC assay in heart membrane preparations; format: biochemical, mouse; details: 10 μM
# Experimental: FIG. 17: Adrenergic, muscarinic, and Ca^2+-mediated regulation of cardiac AC activity. A, AC activity in vitro. The steady state AC activity was determined as the maximal cAMP production over 15 min. Stimulation was performed at the level of the β-AR (ISO), G-protein (GTPγS) and AC catalytic unit with forskolin (Fsk). *P<0.01, n=5. B, Effects of carbachol on AC activity. AC was preactivated by ISO. AC activity was then determined in the absence and presence of carbachol. Carbachol at 10 μmol/L produced its maximal inhibitory effect. *P<0.01, n−5. C, To investigate the inhibition of AC activity by Ca^2+, we examined cAMP production in membranes from the hearts of WT and AC5KO at increasing Ca^2+ concentrations in the presence of ISO. ISO-stimulated AC activity was inhibited more in WT than in AC5KO. […].
# Hearts were dissected from the mice and membrane preparations were prepared as described previously. Protein concentration was measured by the method of Bradford using bovine serum albumin as a standard. AC activity was measured as described previously. AC activity was linear within the incubation time up to 30 min. In order to harvest hearts for tissue cAMP content measurements, mice were allowed to acclimate to the surroundings in the laboratory for an hour before sacrifice. Freshly isolated hearts were briefly immersed in liquid nitrogen. The tissue was homogenized in ice-cold 6% percholic acid, and cAMP was extracted as described before. The concentration of cAMP was determined with an RIA kit (PerkinElmer Life Sciences, Boston, Mass., USA).
# Hearts were dissected from the mice, and membrane preparations were prepared as described previously. Protein concentration was measured by the Bradford method using bovine serum albumin as a standard. AC activity was measured as described previously. AC activity was linear within the incubation time up to 30 min. For the study of Ca 2+ inhibition, the membranes were treated first with EGTA to extract the endogenous Ca 2+ prior to the assay. Free Ca 2+ concentrations were obtained with the use of 200 μmol/L EGTA buffers as described previously. The experiments with Ca 2+ inhibition were conducted in the presence of 100 μmol/L isoproterenol (ISO)+100 μmol/L GTP.
compound,measurement,setting,value
Nc1ncnc2c1ncn2[C@H]1C[C@H](OP(=O)(O)O)[C@@H](CO)O1 [2′-d-3′-AMP],IC50,AC5 [1],0.82 µM
Nc1ncnc2c1ncn2[C@@H]1O[C@H](CO)[C@@H](OP(=O)(O)O)[C@H]1O [3′-AMP],IC50,AC5 [1],14.6 µM
"CC[C@@]1(C)CC(=O)[C@@]2(O)[C@]3(C)[C@H](O)CCC(C)(C)[C@H]3[C@@H](O)[C@@H](OC(C)=O)[C@]2(C)O1 [14,15-Dihydroforskolin]",AC5 selectivity of stimulation (in words),AC5 [2],small enhancement in AC5 selectivity
"CC(=O)OCC[N+](C)(C)C [ACh, acetylcholine]",decrease of HR,"[3]; conscious AC5KO, 0.01 μg/g i.v. (Example 2)",7.5%
same,decrease of HR,"[3]; conscious AC5KO, 0.01 mg/kg i.v. (Example 3)",1.3%
same,decrease of HR,"[3]; conscious WT, 0.01 μg/g i.v. (Example 2)",22%
same,decrease of HR,"[3]; conscious WT, 0.01 mg/kg i.v. (Example 3)",15%
"Nc1ncnc2c1ncn2C1CCCC1 [CPA, 9-(cyclopentyl)adenine]",inhibition of AC3 (in words),AC3,only to a modest degree
same,inhibition of AC2 (in words),AC2,only to a modest degree
same,inhibition of AC5 (in words),AC5 [1]; in the presence of Gsalpha/GTPgammaS/forskolin,potently inhibited AC5
C[N+](C)(C)CCOC(N)=O [Carbachol],decrease of ISO-stimulated AC activity (in words),cardiac AC; AC5KO heart membranes,did not inhibit; also recorded: hardly detectable
same,decrease of ISO-stimulated AC activity,"cardiac AC; WT heart membranes, ISO 100 μM + GTP 100 μM",21±3.4% and 21±3%
"CNC[C@H](O)c1cccc(O)c1 [Phenylephrine, phenylephrine]",systolic arterial pressure (in words),"[3]; WT and AC5KO, 0.2 μg/g (0.2 mg/kg) i.v.",increased systolic arterial pressure significantly in both WT and AC5KO; also recorded: increased systolic arterial pressure similarly in both WT and AC5KO
CN1[C@@H]2CC[C@H]1C[C@@H](OC(=O)C(CO)c1ccccc1)C2 (stereo partly drawn) [atropine],increase in HR,[3]; conscious AC5KO,19±7.5 beats/min
same,increase in HR (in words),"[3]; conscious AC5KO, 1 mg/kg i.v. (Example 3)",not observed in AC5KO
same,increase in HR,[3]; conscious WT,102±22.2 beats/min
COc1ccc(CCN(C)CCCC(C#N)(c2ccc(OC)c(OC)c2)C(C)C)cc1OC (stereo not drawn) [verapamil],change of HR,[3]; conscious AC5KO,−33±10 beats/min
same,change of HR,[3]; conscious WT,−36±10 beats/min
